Laboratory results from ChEMBL document CHEMBL2034833, “Synthesis of chalcone-amidobenzothiazole conjugates as antimitotic and apoptotic inducing agents” (Bioorg Med Chem, 2012).
Calls of active or inactive are those of the source. The calls are words filed in the database; no cut-off is given here.

Molecular target: Tubulin (Homo sapiens) (UniProt P68371+Q9H4B7+P0DPH7+P68366+Q13509+Q71U36+P04350+Q3ZCM7+P07437+P68363+Q9BQE3+Q6PEY2+Q13885+Q9BVA1+Q9BUF5)
Experiment: Inhibition of tubulin polymerization in human A549 cells assessed as disrupted microtubule organization at 2 uM after 48 hrs by immunohistochemistry analysis
Assay type: cell-based

inhibition: Active
Compound: COc1ccc(/C=C/C(=O)c2cc(OC)c(OC)c(OC)c2)cc1OCC(=O)Nc1nc2ccccc2s1
